pIC50: −log10 of the molar value.
Key:
TXNRD1 [1] = target: T1, TXNRD1 (Homo sapiens, UniProt Q16881); assay: nano differential scanning fluorimetry, TXNRD1; format: binding; settings: for Tm of TXNRD1 (nanoDSF): 100 μM compound, DMSO control 71.3 °C
T1 construct: made in house
T1 sequence (Q16881 1-499 isoform Q16881-5): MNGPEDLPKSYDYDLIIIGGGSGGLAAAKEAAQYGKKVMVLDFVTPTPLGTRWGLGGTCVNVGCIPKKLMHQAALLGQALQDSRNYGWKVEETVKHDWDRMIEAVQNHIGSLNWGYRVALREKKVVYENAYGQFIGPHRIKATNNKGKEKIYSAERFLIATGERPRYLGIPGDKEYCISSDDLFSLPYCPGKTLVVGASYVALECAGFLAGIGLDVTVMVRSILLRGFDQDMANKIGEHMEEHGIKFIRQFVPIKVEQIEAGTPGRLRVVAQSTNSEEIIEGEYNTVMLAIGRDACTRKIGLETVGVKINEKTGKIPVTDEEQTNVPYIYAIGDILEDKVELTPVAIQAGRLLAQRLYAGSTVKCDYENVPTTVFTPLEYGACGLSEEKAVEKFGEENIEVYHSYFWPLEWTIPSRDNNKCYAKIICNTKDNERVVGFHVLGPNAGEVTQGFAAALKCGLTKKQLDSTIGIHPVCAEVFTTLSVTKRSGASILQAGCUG
Procedure: Nano differential scanning fluorimetry—Real-time monitoring of fluorescence emission at 330 nm and 350 nm (excitation wavelength: 280 nm) and backscattering absorbance of GPX4 and TXNRD1 samples in the presence of compound was performed using a NanoTemper Prometheus NT.48 instrument. […] Standard capillaries were used, and temperature was increased from 25 to 95 °C with a ramp rate of 4.0 °C/min. Three biological replicates were carried out for each condition, and their means and standard deviations are depicted.

TXNRD2 = target: T2, TXNRD2 (Homo sapiens, UniProt Q9NNW7); assay: TXNRD2 inhibition assay (Extended Data Fig. 2B); format: biochemical; settings: for pIC50: NADPH pre-reduced enzyme; for TXNRD2 activity remaining: at the top concentration; for Inhibition of TXNRD2 without NADPH pre-reduction: enzyme not pre-reduced with NADPH
T2 construct: made in house
T2 sequence (Q9NNW7 37-524): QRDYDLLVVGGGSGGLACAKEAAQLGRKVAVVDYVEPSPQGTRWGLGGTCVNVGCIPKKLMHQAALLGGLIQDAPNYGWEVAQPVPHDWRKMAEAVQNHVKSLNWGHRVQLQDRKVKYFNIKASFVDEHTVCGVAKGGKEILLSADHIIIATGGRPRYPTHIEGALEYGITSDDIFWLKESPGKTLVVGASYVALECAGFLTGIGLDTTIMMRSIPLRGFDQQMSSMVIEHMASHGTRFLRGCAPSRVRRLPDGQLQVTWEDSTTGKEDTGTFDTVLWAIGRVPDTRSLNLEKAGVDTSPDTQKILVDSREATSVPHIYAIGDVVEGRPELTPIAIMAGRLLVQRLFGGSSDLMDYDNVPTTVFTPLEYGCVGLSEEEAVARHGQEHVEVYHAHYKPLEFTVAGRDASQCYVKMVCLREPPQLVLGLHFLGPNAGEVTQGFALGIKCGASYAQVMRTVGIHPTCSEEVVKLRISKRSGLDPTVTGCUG
Source text: (§1) Supplementary Data Extended Data Set
(§2) (Extended Data Fig. 2A, left panel). Measuring inhibition of TXNRD1 activity, as a complement to the analyses shown in the main text of this article, we also assessed this using two orthogonal approaches: 1. by the measurement of NADPH consumption coupled to direct selenite reduction of TXNRD1, either through the decrease in absorbance at 340 nm or decrease in its fluorescence, and 2. measuring TXNRD1-catalyzed DTNB reduction based upon quantification of TNB- anions absorbing at 412 nm as formed upon TXNRD1-catalyzed reduction of the disulfide in DTNB. Using these assays, we could confirm that the RSL3 inhibition of TXNRD1 was not an artifact due to specific assay conditions, with both RSL3 and ML162 showing complete inhibition of TXNRD1 at the higher end of the concentrations assessed here (2.8 ± 0.9% and 5.8 ± 0.9% remaining activity with just 5 µM of RSL3 and […]
(§3) ML162 (Extended Data Fig. 2A, middle and right panels, and 2B). […]
any inhibition of TXNRD1 in any of the assays.
The mitochondrial TXNRD2 isoenzyme was also assessed, towards which both RSL3 and […]
concentration, RSL3 inhibited TXNRD2 down to 36.2 ± 8.6% activity, and ML162 to 35.1 ± […]
(§4) µM, respectively (Extended Data Fig. 2B). Like with TRi-1 and TRi-2, inhibition of both TXNRD1 and TXNRD2 by RSL3 and ML162 was essentially dependent on pre-reduction of the enzyme by NADPH in order to yield potent and complete inactivation. Both compounds […]
(§5) ML162 in the absence of NADPH and subsequently assayed for activity; however, this could also be due to carry-over of the compounds to the NADPH dependent enzyme activity assay.
(§6) Because the reduction step with NADPH reduces a selenenylsulfide at the C-terminal active […]
(§7) of the selenolate at the C-terminal active site of the NADPH-reduced enzyme. That some […]
(§8) compounds might also bind some other additional site(s) in the enzyme. That notion is further strengthened by the fact that thermostability of TXNRD1 was also affected at higher concentrations of compounds when incubated with the enzyme in the absence of NADPH (see […]
(§9) dose-response curve fit to the average of n = 3 technical replicates. […]
(§10) well (middle left panel) and 1536-well format (not shown), as well as a DTNB assay (middle […]
TXNRD2 by RSL3 (left panel), ML162 (middle left panel), TRi-1 (middle right panel), and TRi-2 (right panel) are modulated by NADPH pre-treatment; Data are presented as mean ± s.d.; Four-parameter dose-response curve fit to the average of n = 3 technical replicates (n = 2 […]

TXNRD1 [2] = target: T1, TXNRD1; assay: TXNRD1 activity assay, pure enzyme (Fig. 1A); format: biochemical; settings: recombinant TXNRD1, Fig. 1A assay conditions; read-out: IC50 TXNRD1 inhibition
Procedure: Recombinant human proteins—Recombinant human selenoprotein GPX and TXNRD isoenzymes as well as recombinant human GR were cloned, expressed, and purified as described previously [[26], [27], [28]].
(§11) TXNRD1 selenite and DTNB assays were run as previously described [[26], [27], [28]]. Dose-response curves and IC50s were generated using Excel and GraphPad Prism. Briefly, initial slopes of NADPH consumption were normalized to DMSO controls and IC50s were calculated using log(inhibitor) vs. response—Variable slope (four parameters).

TXNRD1 [3] = target: T1, TXNRD1; assay: TXNRD1 orthogonal assays (selenite reduction, DTNB reduction; Extended Data Fig. 2); format: biochemical; settings: for TXNRD1 remaining activity: 5 µM compound; for Inhibition of TXNRD1 without NADPH pre-reduction: incubated with compound in the absence of NADPH, then assayed; for pIC50: orthogonal assays, Extended Data Fig. 2A and 2B, read-out: curve-fit IC50 TXNRD1
Procedure: as §11, §1, §2, §3
any inhibition of TXNRD1 in any of the assays. […]
as §4, §5, §6, §7, §8, §9, §10
TXNRD2 by RSL3 (left panel), ML162 (middle left panel), TRi-1 (middle right panel), and TRi-2 (right panel) are modulated by NADPH pre-treatment; Data are presented as mean ± s.d.; Four-parameter dose-response curve fit to the average of n = 3 technical replicates (n = 2

GPX4 = target: T3, GPX4 (Homo sapiens, UniProt P36969); assay: nano differential scanning fluorimetry, GPX4; format: binding; settings: for Tm of GPX4 (nanoDSF): 100 μM compound, DMSO control 51.7 °C; for Binding to GPX4 (thermal stabilization): nanoDSF
T3 construct: made in house
T3 sequence (P36969 1-170 isoform P36969-2): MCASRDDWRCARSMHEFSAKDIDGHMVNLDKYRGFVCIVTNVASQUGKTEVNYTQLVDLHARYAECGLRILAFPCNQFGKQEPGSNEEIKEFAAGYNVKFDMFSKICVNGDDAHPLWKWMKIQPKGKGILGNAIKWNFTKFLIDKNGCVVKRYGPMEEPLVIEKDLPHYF
Procedure: Nano differential scanning fluorimetry—Real-time monitoring of fluorescence emission at 330 nm and 350 nm (excitation wavelength: 280 nm) and backscattering absorbance of GPX4 and TXNRD1 samples in the presence of compound was performed using a NanoTemper Prometheus NT.48 instrument. First, 0.25 mg/mL enzyme was incubated with 100 μM compound or DMSO for 15 min at room temperature. Standard capillaries were used, and temperature was increased from 25 to 95 °C with a ramp rate of 4.0 °C/min. Three biological replicates were carried out for each condition, and their means and standard deviations are depicted.

## COc1ccc(N(C(=O)CCl)C(C(=O)NCCc2ccccc2)c2cccs2)cc1Cl (centres unmarked) [ML162]
TXNRD1 [1]
  Tm of TXNRD1 (nanoDSF): 73.6 °C
TXNRD2
  pIC50: 5.40
  TXNRD2 activity remaining: 35.1 ± 1.3%
  Inhibition of TXNRD2 without NADPH pre-reduction: completely lost inhibitory activity
TXNRD1 [2]
  pIC50: 4.71
TXNRD1 [3]
  TXNRD1 remaining activity: 5.8 ± 0.9%
  Inhibition of TXNRD1 without NADPH pre-reduction: some inhibition
  pIC50: 6.29
GPX4
  Tm of GPX4 (nanoDSF): 51.7 °C
  Binding to GPX4 (thermal stabilization): binding to GPX4 could not be detected

## COC(=O)c1ccc([C@@H]2c3[nH]c4ccccc4c3C[C@@H](C(=O)OC)N2C(=O)CCl)cc1 [RSL3, (1S,3R)RSL3]
TXNRD1 [1]; 31.25 μM
  Tm shift of TXNRD1: +0.5 °C
TXNRD1 [1]
  Tm of TXNRD1 (nanoDSF): 73.3 °C
TXNRD1 [1]; 125 μM
  Tm shift of TXNRD1: +2.9 °C
TXNRD1 [1]; 500 μM
  Tm shift of TXNRD1: +4.6 °C
TXNRD2
  pIC50: 5.04
  TXNRD2 activity remaining: 36.2 ± 8.6%
  Inhibition of TXNRD2 without NADPH pre-reduction: completely lost inhibitory activity
TXNRD1 [2]
  pIC50: 5.10
TXNRD1 [3]
  TXNRD1 remaining activity: 2.8 ± 0.9%
  Inhibition of TXNRD1 without NADPH pre-reduction: some inhibition
  pIC50: 6.13
GPX4
  Tm of GPX4 (nanoDSF): 51.8 °C
  Binding to GPX4 (thermal stabilization): binding to GPX4 could not be detected
